Assay results from ChEMBL document CHEMBL4346757, “Synthesis and biological evaluation of 7-methoxy-1-(3,4,5-trimethoxyphenyl)-4,5-dihydro-2H-benzo[e]indazoles as new colchicine site inhibitors” (Bioorg Med Chem Lett, 2019).

Legend:
Type in all cases: functional
OVCAR-4 = assay: Growth inhibition of human OVCAR4 cells assessed as cell growth at 0.01 uM after 48 hrs by SRB assay relative to control; conditions: OVCAR-4, 48 h, read-out: Activity
ACHN [1] = assay: Growth inhibition of human ACHN cells assessed as cell growth at 0.1 uM after 48 hrs by SRB assay relative to control; conditions: read-out: Activity
UO-31 [2] = assay: Growth inhibition of human UO31 cells assessed as cell growth at 0.01 uM after 48 hrs by SRB assay relative to control; conditions: UO-31, 48 h, read-out: Activity
HCT-116 [3] = assay: Cytotoxicity against human HCT116 cells assessed as growth inhibition after 48 hrs by SRB assay; conditions: HCT-116, 48 h
MDA-MB-435 [4] = assay: Growth inhibition of human MDA-MB-435 cells assessed as cell growth at 0.01 uM after 48 hrs by SRB assay relative to control; conditions: MDA-MB-435, 48 h, read-out: Activity
EKVX = assay: Growth inhibition of human EKVX cells assessed as cell growth at 1 uM after 48 hrs by SRB assay relative to control; conditions: read-out: Activity
MCF7 [5] = assay: Growth inhibition of human MCF7 cells assessed as cell growth at 0.1 uM after 48 hrs by SRB assay relative to control; conditions: MCF7, 48 h, read-out: Activity
Malme-3M = assay: Cytotoxicity against human MALME-3M cells assessed as growth inhibition after 48 hrs by SRB assay
HT-29 [6] = assay: Cytotoxicity against human HT-29 cells assessed as growth inhibition after 48 hrs by SRB assay; conditions: HT-29, 48 h
HOP-62 = assay: Growth inhibition of human HOP62 cells assessed as cell growth at 0.01 uM after 48 hrs by SRB assay relative to control; conditions: HOP-62, 48 h, read-out: Activity
T47D = assay: Growth inhibition of human T47D cells assessed as cell growth at 0.1 uM after 48 hrs by SRB assay relative to control; conditions: read-out: Activity
NCI-H322M [7] = assay: Growth inhibition of human NCI-H322M cells assessed as cell growth at 10 uM after 48 hrs by SRB assay relative to control; conditions: read-out: Activity
A498 = assay: Growth inhibition of human A498 cells assessed as cell growth at 0.01 uM after 48 hrs by SRB assay relative to control; conditions: A498, 48 h, read-out: Activity
MCF7 [8] = assay: Cytotoxicity against human MCF7 cells assessed as growth inhibition after 48 hrs by SRB assay; conditions: MCF7, 48 h
NCI-H322M [9] = assay: Cytotoxicity against human NCI-H322M cells assessed as growth inhibition after 48 hrs by SRB assay
NCI-H322M [10] = assay: Growth inhibition of human NCI-H322M cells assessed as cell growth at 1 uM after 48 hrs by SRB assay relative to control; conditions: read-out: Activity
MDA-MB-435 [11] = assay: Growth inhibition of human MDA-MB-435 cells assessed as cell growth at 100 uM after 48 hrs by SRB assay relative to control; conditions: MDA-MB-435, 48 h, read-out: Activity
ACHN [12] = assay: Growth inhibition of human ACHN cells assessed as cell growth at 100 uM after 48 hrs by SRB assay relative to control; conditions: read-out: Activity
CAKI-1 = assay: Growth inhibition of human Caki1 cells assessed as cell growth at 0.01 uM after 48 hrs by SRB assay relative to control; conditions: CAKI-1, 48 h, read-out: Activity
NCI-H23 = assay: Growth inhibition of human NCI-H23 cells assessed as cell growth at 0.01 uM after 48 hrs by SRB assay relative to control; conditions: NCI-H23, 48 h, read-out: Activity
HCC 2998 = assay: Growth inhibition of human HCC2998 cells assessed as cell growth at 10 uM after 48 hrs by SRB assay relative to control; conditions: HCC 2998, 48 h, read-out: Activity
SW-620 = assay: Growth inhibition of human SW620 cells assessed as cell growth at 10 uM after 48 hrs by SRB assay relative to control; conditions: SW-620, 48 h, read-out: Activity
NCI/ADR-RES = assay: Growth inhibition of human NCI-ADR-RES cells assessed as cell growth at 10 uM after 48 hrs by SRB assay relative to control; conditions: read-out: Activity
HT-29 [13] = assay: Growth inhibition of human HT-29 cells assessed as cell growth at 0.01 uM after 48 hrs by SRB assay relative to control; conditions: HT-29, 48 h, read-out: Activity
UACC-257 = assay: Growth inhibition of human UACC257 cells assessed as cell growth at 0.1 uM after 48 hrs by SRB assay relative to control; conditions: UACC-257, 48 h, read-out: Activity
IGROV-1 = assay: Growth inhibition of human IGROV1 cells assessed as cell growth at 0.01 uM after 48 hrs by SRB assay relative to control; conditions: IGROV-1, 48 h, read-out: Activity
LOX IMVI = assay: Growth inhibition of human LOXIMVI cells assessed as cell growth at 100 uM after 48 hrs by SRB assay relative to control; conditions: read-out: Activity
UO-31 [14] = assay: Growth inhibition of human UO31 cells assessed as cell growth at 100 uM after 48 hrs by SRB assay relative to control; conditions: UO-31, 48 h, read-out: Activity
UACC-62 = assay: Cytotoxicity against human UACC62 cells assessed as growth inhibition after 48 hrs by SRB assay; conditions: UACC-62, 48 h
HCT-116 [15] = assay: Growth inhibition of human HCT116 cells assessed as cell growth at 0.1 uM after 48 hrs by SRB assay relative to control; conditions: HCT-116, 48 h, read-out: Activity
U-251 = assay: Growth inhibition of human U251 cells assessed as cell growth at 0.1 uM after 48 hrs by SRB assay relative to control; conditions: U-251, 48 h, read-out: Activity
[16] = read-out: LC50 (the source's name)
[17] = read-out: pLC50 (the source's name) (converted)

SMILES: COc1ccc2c(c1)CCc1n[nH]c(-c3cc(OC)c(OC)c(OC)c3)c1-2
- growth at 0.01 µM (OVCAR-4): 41%
- growth at 0.1 µM (ACHN [1]): 27%
- growth at 0.01 µM (UO-31 [2]): 42%
- GI50 (HCT-116 [3]; read-out: GI50): < 0.01 µM
- CC50 (HCT-116 [3]; [16]): 48.9 µM
- TGI (HCT-116 [3]; read-out: TGI): 1.16 µM
- GI50 (HCT-116 [3]; read-out: pGI50 (converted)): < 0.01 µM
- CC50 (HCT-116 [3]; [17]): 49 µM
- TGI (HCT-116 [3]; read-out: pTGI (converted)): 1.15 µM
- growth at 0.01 µM (MDA-MB-435 [4]): -45%
- growth at 1 µM (EKVX): 52%
- growth at 0.1 µM (MCF7 [5]): 14%
- GI50 (Malme-3M; read-out: GI50): < 0.01 µM
- CC50 (Malme-3M; [16]): > 100 µM
- TGI (Malme-3M; read-out: TGI): 33.9 µM
- GI50 (Malme-3M; read-out: pGI50 (converted)): < 0.01 µM
- CC50 (Malme-3M; [17]): > 100 µM
- TGI (Malme-3M; read-out: pTGI (converted)): 33.9 µM
- GI50 (HT-29 [6]; read-out: GI50): < 0.01 µM
- CC50 (HT-29 [6]; [16]): 49.9 µM
- TGI (HT-29 [6]; read-out: TGI): 10.1 µM
- GI50 (HT-29 [6]; read-out: pGI50 (converted)): < 0.01 µM
- CC50 (HT-29 [6]; [17]): 50.1 µM
- TGI (HT-29 [6]; read-out: pTGI (converted)): 10 µM
- growth at 0.01 µM (HOP-62): 11%
- growth at 0.1 µM (T47D): 74%
- growth at 10 µM (NCI-H322M [7]): 31%
- growth at 0.01 µM (A498): -11%
- GI50 (MCF7 [8]; read-out: GI50): < 0.01 µM
- LC50 (MCF7 [8]; read-out: LC50): > 100 µM
- TGI (MCF7 [8]; read-out: TGI): 12.9 µM
- GI50 (MCF7 [8]; read-out: pGI50 (converted)): < 0.01 µM
- LC50 (MCF7 [8]; read-out: pLC50 (converted)): > 100 µM
- TGI (MCF7 [8]; read-out: pTGI (converted)): 12.9 µM
- GI50 (NCI-H322M [9]; read-out: GI50): < 0.01 µM
- CC50 (NCI-H322M [9]; [16]): > 100 µM
- TGI (NCI-H322M [9]; read-out: TGI): 39.5 µM
- GI50 (NCI-H322M [9]; read-out: pGI50 (converted)): < 0.01 µM
- CC50 (NCI-H322M [9]; [17]): > 100 µM
- TGI (NCI-H322M [9]; read-out: pTGI (converted)): 39.8 µM
- growth at 1 µM (NCI-H322M [10]): 42%
- growth at 100 µM (MDA-MB-435 [11]): -64%
- growth at 100 µM (ACHN [12]): -29%
- growth at 0.01 µM (CAKI-1): 30%
- growth at 0.01 µM (NCI-H23): 14%
- growth at 10 µM (HCC 2998): 5%
- growth at 10 µM (SW-620): 14%
- growth at 10 µM (NCI/ADR-RES): -11%
- growth at 0.01 µM (HT-29 [13]): 5%
- growth at 0.1 µM (UACC-257): 51%
- growth at 0.01 µM (IGROV-1): 39%
- growth at 100 µM (LOX IMVI): -91%
- growth at 100 µM (UO-31 [14]): -43%
- GI50 (UACC-62; read-out: GI50): < 0.01 µM
- CC50 (UACC-62; [16]): 50 µM
- TGI (UACC-62; read-out: TGI): 13 µM
- GI50 (UACC-62; read-out: pGI50 (converted)): < 0.01 µM
- CC50 (UACC-62; [17]): 50.1 µM
- TGI (UACC-62; read-out: pTGI (converted)): 12.9 µM
- growth at 0.1 µM (HCT-116 [15]): 3%
- growth at 0.1 µM (U-251): 10%
